The source of these data is BindingDB's records for patent US12065430 (Taiho Pharmaceutical, 2024).

As a reminder, the IC50 is the concentration that inhibits the measured activity by half. High values mean a need for much substance, low ones inhibition by little substance.

The target in this assay is T1, Son of sevenless homolog 1 [564-1049]/GTPase KRas [G12C] (UniProt P01116+Q07889, G12C).
T1 construct: 564-1049
Nature of the assay: Evaluation of Inhibitory Activity of Compounds on KRAS G12C Nucleotide (GDP-GTP) Exchange Reaction. Here is the method: The inhibitory activity of compounds on exchange reaction of GDP into GppNHp in Bodipy (trademark) FL-bound KRAS G12C was examined by fluorescence measurement using human recombinant KRAS G12C and SOS1 proteins.For the preparation of KRAS G12C to which Bodipy FL GDP was bound, first, […] KRAS G12C (amino acid region: 1-169) and 1 mM Bodipy FL GDP (Invitrogen, G22360) were incubated for 1 hour in a buffer (20 mM Tris-HCl (pH 7.5), 50 mM NaCl, 1 mM DTT) in ice in the presence of 2.5 mM EDTA. Thereafter, MgCl2 with a final concentration of 10 mM was added, and the mixture was incubated at room temperature for 30 minutes. The protein was allowed to pass through a NAP-5 column to remove free nucleotides and was used for compound evaluation.For the measurement of the inhibitory activity of compounds on nucleotide exchange reaction, first, the compound of the present invention was diluted stepwise with dimethyl sulfoxide (DMSO). Subsequently, a solution of the gradually diluted compound of the present invention in DMSO (the final concentration of DMSO: 5%) and KRAS G12C (25 nM) bound to Bodipy FL GDP were added to a reaction buffer (20 mM Tris-HCl (pH 7.5), 100 mM NaCl, 1 mM MgCl2, 2 mM DTT, 0.1% Tween20), followed by preincubation at 25° C. for 4 hours. Thereafter, Son of Sevenless Homolog 1 (SOS1, amino acid region: 564-1049) and GppNHp (GMPPNP, Jena Bioscience GmbH, NU-401-50) were added such that their final concentration was 100 nM and 1 μM respectively, followed by reaction for 30 minutes. The change in fluorescence intensity of Bodipy FL (excitation wavelength: 485 nm, fluorescence wavelength: 520 nm) immediately after the start of reaction and after 30 minutes from the start of reaction was standardized. The signal value for only DMSO was determined to be 0% inhibition, and the signal value for no addition of GppNHp was determined to be 100% inhibition. The compound concentration at which 50% inhibition is achieved was determined to be IC50 (nM), and was calculated.

T1 sequence (P01116 whole entry G12C): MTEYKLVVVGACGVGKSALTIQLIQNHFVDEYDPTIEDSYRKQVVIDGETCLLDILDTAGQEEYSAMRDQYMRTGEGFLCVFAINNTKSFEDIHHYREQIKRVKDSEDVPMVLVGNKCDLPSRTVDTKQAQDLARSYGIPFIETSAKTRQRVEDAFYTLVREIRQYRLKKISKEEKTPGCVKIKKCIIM
T1 sequence (Q07889 564-1049): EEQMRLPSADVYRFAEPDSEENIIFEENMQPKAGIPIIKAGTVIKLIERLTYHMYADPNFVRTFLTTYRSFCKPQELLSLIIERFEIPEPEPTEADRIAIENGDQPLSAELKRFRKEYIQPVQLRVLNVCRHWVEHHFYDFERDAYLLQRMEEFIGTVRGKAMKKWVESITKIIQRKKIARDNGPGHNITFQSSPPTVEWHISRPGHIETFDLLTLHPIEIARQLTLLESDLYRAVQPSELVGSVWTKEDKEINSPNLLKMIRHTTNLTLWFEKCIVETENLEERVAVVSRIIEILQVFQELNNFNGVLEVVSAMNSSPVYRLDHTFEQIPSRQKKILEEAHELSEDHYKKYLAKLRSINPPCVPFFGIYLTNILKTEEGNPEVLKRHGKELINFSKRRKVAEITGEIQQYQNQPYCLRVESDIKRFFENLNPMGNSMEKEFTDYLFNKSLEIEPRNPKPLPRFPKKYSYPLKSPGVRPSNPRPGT

In turn, `C=CC(=O)N1CC(NC(=O)c2cnc(CNc3n[nH]c4cc(Cl)c(C(C)(C)C)cc34)n2C)C1` [US12065430, Example 1] gave a half-maximal inhibitory concentration (IC50) of 16 nM.

`C=CC(=O)N1CC(NC(=O)c2sc(CNc3n[nH]c4cc(Cl)c(C(C)(C)C)cc34)nc2C)C1` [US12065430, Example 2] returned an IC50 of 365 nM. Then `C=CC(=O)N1CC(NC(=O)c2cnc(C(C)Nc3n[nH]c4cc(Cl)c(C(C)(C)C)cc34)n2C)C1` (stereo not drawn) [US12065430, Example 4], with 1560 nM; and `C=CC(=O)N1CC(NC(=O)c2c(Cl)c(CNc3n[nH]c4cc(Cl)c(C(C)(C)C)cc34)nn2C)C1` [US12065430, Example 6], with 791 nM; and `C=CC(=O)N1CC(NC(=O)c2csc(CNc3n[nH]c4cc(Cl)c(C(C)(C)C)cc34)n2)C1` [US12065430, Example 7], with 4260 nM. Then `C=CC(=O)N1CC(NC(=O)c2cnc(CNc3n[nH]c4cc(Cl)c(C(C)(C)C)cc34)s2)C1` [US12065430, Example 8], with 783 nM; and `C=CC(=O)N1CC(NC(=O)c2cc(CNc3n[nH]c4cc(Cl)c(C(C)(C)C)cc34)nn2C)C1` [US12065430, Example 9], with 3140 nM; and `C=CC(=O)N1CC(NC(=O)c2c(C)c(CNc3n[nH]c4cc(Cl)c(C(C)(C)C)cc34)nn2C)C1` [US12065430, Example 10], with 129 nM. `C=CC(=O)N1CC(NC(=O)c2oc(CNc3n[nH]c4cc(Cl)c(C(C)(C)C)cc34)nc2C)C1` [US12065430, Example 11] registered a half-maximal inhibitory concentration (IC50) of 1060 nM. The value for `C=CC(=O)N1CC(NC(=O)c2c(C)nc(CNc3n[nH]c4cc(Cl)c(C(C)(C)C)cc34)n2CC)C1` [US12065430, Example 12] was 16 nM; that for `C=CC(=O)N1CC(NC(=O)c2c(C)nc(CNc3n[nH]c4cc(Cl)c(C(C)(C)C)cc34)n2C(C)C)C1` [US12065430, Example 13] was 15 nM. Then `C=CC(=O)N1CC(NC(=O)c2c(C)nc(CNc3n[nH]c4cc(Cl)c(C(C)(C)C)cc34)n2CCOC)C1` [US12065430, Example 14], with 24 nM. Compound `C=CC(=O)N1CC(NC(=O)c2c(C)nc(CNc3n[nH]c4cc(Cl)c(C(C)(C)C)cc34)n2Cc2ccccc2)C1` [US12065430, Example 15] registered an IC50 of 84 nM. As to `C=CC(=O)N1CC(NC(=O)c2c(C)nc(CNc3n[nH]c4cc(Cl)c(C(C)(C)C)cc34)n2CCN(C)C)C1` [US12065430, Example 16], half-maximal inhibition (IC50) required 25 nM. As for `C=CC(=O)N1CC(NC(=O)c2c(C)nc(CNc3n[nH]c4cc(Cl)c(C(C)(C)C)cc34)n2C2CCCC2)C1` [US12065430, Example 17], the half-inhibitory concentration (IC50) turned out to be 17 nM.

In turn, `C=CC(=O)N1CC(NC(=O)c2c(C)nc(CNc3n[nH]c4cc(Cl)c(C(C)(C)C)cc34)n2CCCC)C1` [US12065430, Example 18] registered an IC50 of 12 nM. Then `C=CC(=O)N1CC(NC(=O)c2c(C)nc(CNc3n[nH]c4cc(Cl)c(C(C)(C)C)cc34)n2CCC)C1` [US12065430, Example 19], with 9 nM; and `C=CC(=O)N1CC(NC(=O)c2c(C)nc(CNc3n[nH]c4cc(Cl)c(C(C)(C)C)cc34)n2C(C)CC)C1` (stereo not drawn) [US12065430, Example 20], with 31 nM; and `C=CC(=O)N1CC(NC(=O)c2c(C)nc(CNc3n[nH]c4cc(Cl)c(C(C)(C)C)cc34)n2C(F)F)C1` [US12065430, Example 21], with 58 nM. Consider `C=CC(=O)N1CC(NC(=O)c2c(C)nc(CNc3n[nH]c4cc(Cl)c(C(C)(C)C)cc34)n2CC(F)(F)F)C1` [US12065430, Example 22], for which the IC50 came out at 55 nM. Turning to `C=CC(=O)N1CC(NC(=O)c2c(C)nc(CNc3n[nH]c4cc(Cl)c(C(C)(C)C)cc34)n2C2CC2)C1` [US12065430, Example 23], half-maximal inhibition (IC50) required 7 nM. For `C=CC(=O)N1CC(NC(=O)c2c(C)nc(CNc3n[nH]c4cc(Cl)c(C(C)(C)C)cc34)n2C(C)(C)C)C1` [US12065430, Example 24], the IC50 stood at 35 nM. Then `C=CC(=O)N1CC(NC(=O)c2c(C(F)(F)F)nc(CNc3n[nH]c4cc(Cl)c(C(C)(C)C)cc34)n2C)C1` [US12065430, Example 25], with 163 nM. The compound `C=CC(=O)N1CC(NC(=O)c2c(I)nc(CNc3n[nH]c4cc(Cl)c(C(C)(C)C)cc34)n2C)C1` [US12065430, Example 26] returned a half-inhibitory concentration (IC50) of 69 nM. The compound `C=CC(=O)N1CC(NC(=O)c2c(Br)nc(CNc3n[nH]c4cc(Cl)c(C(C)(C)C)cc34)n2C)C1` [US12065430, Example 27] displayed a half-inhibitory concentration (IC50) of 8 nM. The value for `C=CC(=O)N1CC(NC(=O)c2c(C#N)nc(CNc3n[nH]c4cc(Cl)c(C(C)(C)C)cc34)n2C)C1` [US12065430, Example 28] was 70 nM; that for `C=CC(=O)N1CC(NC(=O)c2c(Cl)nc(CNc3n[nH]c4cc(Cl)c(C(C)(C)C)cc34)n2C)C1` [US12065430, Example 29] was 6 nM. The value for `C=CC(=O)N1CC(NC(=O)c2c(F)nc(CNc3n[nH]c4cc(Cl)c(C(C)(C)C)cc34)n2C)C1` [US12065430, Example 30] was 11 nM; that for `C=CC(=O)N1CC(NC(=O)c2c(CC)nc(CNc3n[nH]c4cc(Cl)c(C(C)(C)C)cc34)n2C)C1` [US12065430, Example 31] was 642 nM; that for `C=CC(=O)N1CC(NC(=O)c2c(C(F)(F)F)nc(CNc3n[nH]c4cc(Cl)c(C(C)(C)C)cc34)n2C(C)C)C1` [US12065430, Example 32] was 50 nM. `C=CC(=O)N1CC(NC(=O)c2c(F)nc(CNc3n[nH]c4cc(Cl)c(C(C)(C)C)cc34)n2C(C)C)C1` [US12065430, Example 34] displayed an IC50 of 13 nM. Then `C=CC(=O)N1CC(NC(=O)c2c(Cl)nc(CNc3n[nH]c4cc(Cl)c(C(C)(C)C)cc34)n2C(C)C)C1` [US12065430, Example 35], with 8 nM.

The compound `C=CC(=O)N1CC(NC(=O)c2cnc(CNc3n[nH]c4cc(Cl)c(C)cc34)n2C)C1` [US12065430, Example 37] registered a 50% inhibitory concentration (IC50) of 5480 nM. The value for `C=CC(=O)N1CC(NC(=O)c2cnc(CNc3n[nH]c4cc(Cl)c(C=C)cc34)n2C)C1` [US12065430, Example 38] was 2170 nM; that for `C=CC(=O)N1CC(NC(=O)c2cnc(CNc3n[nH]c4cc(Cl)c(CC)cc34)n2C)C1` [US12065430, Example 39] was 870 nM. `C=CC(=O)N1CC(NC(=O)c2cnc(CNc3n[nH]c4cc(Cl)c(C(C)(C)C)nc34)n2C)C1` [US12065430, Example 40] had an IC50 of 27 nM. Then `C=CC(=O)N1CC(NC(=O)c2c(C)nc(CNc3n[nH]c4cc(C)c(C(C)(C)C)cc34)n2C)C1` [US12065430, Example 41], with 14 nM. The value for `C=CC(=O)N1CC(NC(=O)c2c(C)nc(CNc3n[nH]c4ccc(C(C)(C)C)cc34)n2C(C)C)C1` [US12065430, Example 42] was 68 nM; that for `C=CC(=O)N1CC(NC(=O)c2c(Cl)nc(CNc3n[nH]c4cc(Cl)c(C(=C)C(F)(F)F)cc34)n2C(C)C)C1` [US12065430, Example 43] was 809 nM; that for `C=CC(=O)N1CC(NC(=O)c2c(Cl)nc(CNc3n[nH]c4cc(Cl)c(C5(C(F)(F)F)CC5)cc34)n2C(C)C)C1` [US12065430, Example 44] was 180 nM. `C=CC(=O)N1CC(NC(=O)c2c(Cl)nc(CNc3n[nH]c4cc(Cl)c(C(C)C)cc34)n2C(C)C)C1` [US12065430, Example 45] displayed an IC50 of 24 nM. The value for `C=CC(=O)N1CCC(NC(=O)c2c(C)nc(CNc3n[nH]c4cc(Cl)c(C(C)(C)C)cc34)n2C)CC1` [US12065430, Example 47] was 1730 nM; that for `C=CC(=O)N1CC(N(C)C(=O)c2c(C)nc(CNc3n[nH]c4cc(Cl)c(C(C)(C)C)cc34)n2C)C1` [US12065430, Example 49] was 208 nM; that for `C=CC(=O)N1CCN(C(=O)c2c(C)nc(CNc3n[nH]c4cc(Cl)c(C(C)(C)C)cc34)n2C)CC1` [US12065430, Example 50] was 4280 nM. On to `C=CC(=O)N(C)C1CN(C(=O)c2c(C)nc(CNc3n[nH]c4cc(Cl)c(C(C)(C)C)cc34)n2C)C1` [US12065430, Example 51], for which half-maximal inhibition (IC50) was put at 42 nM. The compound `C=CC(=O)N1CC(NC(=O)c2c(C)nc(CNc3n[nH]c4cc(Cl)c(C(C)(C)C)cc34)n2C)C(F)(F)C1` (stereo not drawn) [US12065430, Example 53] had a 50% inhibitory concentration (IC50) of 42 nM. Then `C=CC(=O)N1C[C@H](NC(=O)c2c(C)nc(CNc3n[nH]c4cc(Cl)c(C(C)(C)C)cc34)n2C)C2(CC2)C1` [US12065430, Example 54], with 301 nM.

Take `C=CC(=O)N1C[C@@H](CC#N)[C@@H](NC(=O)c2c(C)nc(CNc3n[nH]c4cc(Cl)c(C(C)(C)C)cc34)n2C)C1` [US12065430, Example 65]: it took 19 nM to reach half-maximal inhibition (IC50).
